Measured values taken from ChEMBL document CHEMBL1157938, “Cytotoxicity and inhibition of DNA topoisomerase I of polyhydroxylated triterpenoids and triterpenoid glycosides” (Bioorg Med Chem Lett, 2010).
Activity calls are given as the source filed them. No cut-off for these calls is given here.

Tests used:
MRC5 = test: Cytotoxicity against human MRC5 cells at 25 uM after 48 hrs by WST8 assay; type: cell-based; conditions: mrc5, 48 h
PANC-1 = test: Cytotoxicity against human PANC1 cells at 25 uM after 48 hrs by WST8 assay; type: functional, cell-based
A549 = test: Cytotoxicity against human A549 cells at 25 uM after 48 hrs by WST8 assay; type: functional, cell-based
PC-3 = test: Cytotoxicity against human PC3 cells at 25 uM after 48 hrs by WST8 assay; type: functional, cell-based
HL-60 = test: Cytotoxicity against human HL60 cells at 25 uM after 48 hrs by WST8 assay; type: functional, cell-based
[1] = molecular target: DNA topoisomerase 2-alpha (Homo sapiens, UniProt P11388); test: Inhibition of human DNA topoisomerase 2-mediated relaxation of supercoiled DNA by gel electrophoresis
DNA topoisomerase 1 = molecular target: T1, DNA topoisomerase 1 (Homo sapiens, UniProt P11387); test: Inhibition of human DNA topoisomerase 1-mediated relaxation of supercoiled DNA by gel electrophoresis
T1 sequence (P11387 whole entry): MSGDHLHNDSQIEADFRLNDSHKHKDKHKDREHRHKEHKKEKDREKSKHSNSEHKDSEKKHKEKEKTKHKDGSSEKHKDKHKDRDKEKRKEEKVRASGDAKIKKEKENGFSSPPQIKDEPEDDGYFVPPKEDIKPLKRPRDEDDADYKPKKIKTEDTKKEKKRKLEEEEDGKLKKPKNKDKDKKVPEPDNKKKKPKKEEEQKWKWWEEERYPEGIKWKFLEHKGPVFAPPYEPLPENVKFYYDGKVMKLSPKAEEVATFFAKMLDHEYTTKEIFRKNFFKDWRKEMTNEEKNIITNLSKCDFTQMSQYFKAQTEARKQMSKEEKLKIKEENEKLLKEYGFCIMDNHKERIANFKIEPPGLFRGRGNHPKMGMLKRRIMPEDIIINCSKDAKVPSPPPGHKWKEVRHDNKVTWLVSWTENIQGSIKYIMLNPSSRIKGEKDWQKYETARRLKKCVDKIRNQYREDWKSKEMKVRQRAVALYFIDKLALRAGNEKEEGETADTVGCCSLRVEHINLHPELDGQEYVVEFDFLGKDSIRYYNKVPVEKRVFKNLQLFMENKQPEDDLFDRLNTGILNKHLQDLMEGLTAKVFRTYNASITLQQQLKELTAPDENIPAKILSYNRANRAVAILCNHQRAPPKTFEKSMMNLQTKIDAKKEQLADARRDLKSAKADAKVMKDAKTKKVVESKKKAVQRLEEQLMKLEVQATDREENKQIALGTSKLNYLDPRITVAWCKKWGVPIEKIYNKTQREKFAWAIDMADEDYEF

DNA topoisomerase 2-alpha, sequence (P11388 whole entry): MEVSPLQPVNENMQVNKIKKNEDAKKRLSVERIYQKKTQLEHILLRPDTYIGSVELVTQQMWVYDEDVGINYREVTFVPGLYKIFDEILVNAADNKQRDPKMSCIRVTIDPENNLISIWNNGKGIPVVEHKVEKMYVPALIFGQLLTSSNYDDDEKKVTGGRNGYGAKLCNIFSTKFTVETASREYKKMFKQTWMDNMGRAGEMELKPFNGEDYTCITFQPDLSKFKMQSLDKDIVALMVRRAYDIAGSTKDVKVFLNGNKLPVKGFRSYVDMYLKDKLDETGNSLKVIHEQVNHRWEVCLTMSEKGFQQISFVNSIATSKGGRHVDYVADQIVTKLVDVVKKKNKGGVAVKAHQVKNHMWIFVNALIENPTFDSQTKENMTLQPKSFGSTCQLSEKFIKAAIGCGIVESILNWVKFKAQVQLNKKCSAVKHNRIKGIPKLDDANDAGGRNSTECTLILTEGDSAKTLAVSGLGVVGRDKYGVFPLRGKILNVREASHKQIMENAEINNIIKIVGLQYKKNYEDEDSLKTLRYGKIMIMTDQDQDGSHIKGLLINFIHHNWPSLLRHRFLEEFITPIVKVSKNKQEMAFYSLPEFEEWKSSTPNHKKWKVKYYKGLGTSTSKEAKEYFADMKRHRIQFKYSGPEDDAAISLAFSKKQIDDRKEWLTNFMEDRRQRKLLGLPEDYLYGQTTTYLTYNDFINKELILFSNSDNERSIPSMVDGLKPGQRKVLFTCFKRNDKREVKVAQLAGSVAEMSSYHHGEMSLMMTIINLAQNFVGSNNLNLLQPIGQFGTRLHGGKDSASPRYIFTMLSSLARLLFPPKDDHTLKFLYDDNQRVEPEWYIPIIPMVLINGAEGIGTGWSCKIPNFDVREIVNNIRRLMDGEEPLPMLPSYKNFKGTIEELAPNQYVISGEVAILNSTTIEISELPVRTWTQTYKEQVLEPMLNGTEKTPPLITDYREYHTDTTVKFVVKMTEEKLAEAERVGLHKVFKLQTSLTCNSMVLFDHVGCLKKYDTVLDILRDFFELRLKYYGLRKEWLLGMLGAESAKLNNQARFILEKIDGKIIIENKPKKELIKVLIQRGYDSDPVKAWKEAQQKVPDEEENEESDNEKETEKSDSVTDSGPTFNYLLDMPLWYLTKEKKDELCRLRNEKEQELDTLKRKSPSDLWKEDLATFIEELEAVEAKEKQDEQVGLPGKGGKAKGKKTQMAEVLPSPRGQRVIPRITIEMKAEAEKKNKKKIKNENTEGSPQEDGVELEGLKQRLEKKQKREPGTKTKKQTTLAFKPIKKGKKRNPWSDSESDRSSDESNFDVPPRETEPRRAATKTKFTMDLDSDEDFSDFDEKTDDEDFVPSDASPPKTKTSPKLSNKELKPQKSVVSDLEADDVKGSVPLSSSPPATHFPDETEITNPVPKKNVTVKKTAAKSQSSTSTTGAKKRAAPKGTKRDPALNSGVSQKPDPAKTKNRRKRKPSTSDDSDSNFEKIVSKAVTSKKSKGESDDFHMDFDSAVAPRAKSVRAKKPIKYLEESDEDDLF

Compound | growth inhibition (GI) (MRC5) | growth inhibition (GI) (PANC-1) | growth inhibition (GI) (A549) | growth inhibition (GI) (PC-3) | growth inhibition (GI) (HL-60) | IC50 [1] [µM] | IC50 (DNA topoisomerase 1) [µM]
C[C@@H]1O[C@H](O[C@H]2CC[C@]3(C)[C@H]4CC=C5[C@@H]6CC(C)(C)CC[C@]6(C(=O)O[C@@H]6O[C@H](CO)[C@@H](O)[C@H](O)[C@H]6O)CC[C@@]5(C(=O)O)[C@]4(C)CC[C@H]3C2(C)C)[C@@H](O)[C@H](O)[C@H]1O | Not Active | inactive | inactive | inactive | inactive | – | –
C[C@@H]1O[C@H](O[C@@H]2[C@@H](O)[C@H](O[C@H]3CC[C@]4(C)[C@H]5CC=C6[C@@H]7CC(C)(C)CC[C@]7(C(=O)O[C@@H]7O[C@H](CO)[C@@H](O)[C@H](O)[C@H]7O)CC[C@@]6(C)[C@]5(C)CC[C@H]4C3(C)C)O[C@H](C(=O)O)[C@H]2O)[C@H](O)[C@H](O)[C@H]1O | Not Active | inactive | inactive | inactive | inactive | – | –
CC1(C)C[C@H]2C3=CC[C@@H]4[C@@]5(C)CC[C@H](O[C@@H]6O[C@H](C(=O)O)[C@@H](O)[C@H](O[C@@H]7O[C@@H](CO)[C@H](O)[C@H]7O)[C@H]6O[C@@H]6O[C@H](CO)[C@H](O)[C@H](O)[C@H]6O)C(C)(C)[C@@H]5CC[C@@]4(C)[C@]3(C)[C@@H](O)[C@@H](O)[C@@]2(CO)[C@@H](O)[C@@H]1O [AESCULIOSIDE IA] | Not Active | inactive | inactive | inactive | inactive | – | –
CC1(C)C[C@H]2C3=CC[C@@H]4[C@@]5(C)CC[C@H](O[C@@H]6O[C@H](C(=O)O)[C@@H](O)[C@H](O[C@@H]7O[C@@H](CO)[C@H](O)[C@H]7O)[C@H]6O[C@@H]6O[C@H](CO)[C@@H](O)[C@H](O)[C@H]6O)[C@](C)(CO)[C@@H]5CC[C@@]4(C)[C@]3(C)[C@@H](O)[C@@H](O)[C@@]2(CO)[C@@H](O)[C@@H]1O [AESCULIOSIDE IB] | Not Active | inactive | inactive | inactive | inactive | – | –
CC1(C)C[C@H]2C3=CC[C@@H]4[C@@]5(C)CC[C@H](O[C@@H]6O[C@H](C(=O)O)[C@@H](O)[C@H](O[C@@H]7O[C@@H](CO)[C@H](O)[C@H]7O)[C@H]6O[C@@H]6O[C@H](CO)[C@H](O)[C@H](O)[C@H]6O)C(C)(C)[C@@H]5CC[C@@]4(C)[C@]3(C)C[C@@H](O)[C@@]2(CO)[C@@H](O)[C@@H]1O [AESCULIOSIDE IC] | Not Active | inactive | inactive | inactive | inactive | – | –
CC1(C)C[C@H]2C3=CC[C@@H]4[C@@]5(C)CC[C@H](O[C@@H]6O[C@H](C(=O)O)[C@@H](O)[C@H](O[C@@H]7O[C@@H](CO)[C@H](O)[C@H]7O)[C@H]6O[C@@H]6O[C@H](CO)[C@@H](O)[C@H](O)[C@H]6O)[C@](C)(CO)[C@@H]5CC[C@@]4(C)[C@]3(C)C[C@@H](O)[C@@]2(CO)[C@@H](O)[C@@H]1O [AESCULIOSIDE ID] | Not Active | inactive | inactive | inactive | inactive | – | –
CC1(C)C[C@H]2C3=CC[C@@H]4[C@@]5(C)CC[C@H](O[C@@H]6O[C@H](C(=O)O)[C@@H](O)[C@H](O[C@@H]7O[C@@H](CO)[C@H](O)[C@H]7O)[C@H]6O)[C@](C)(CO)[C@@H]5CC[C@@]4(C)[C@]3(C)C[C@@H](O)[C@@]2(CO)[C@@H](O)[C@@H]1O [AESCULIOSIDE IE] | Not Active | inactive | inactive | inactive | inactive | – | –
C/C=C(\C)C(=O)O[C@H]1[C@H](OC(C)=O)[C@]2(CO)[C@H](O)C[C@]3(C)C(=CC[C@@H]4[C@@]5(C)CC[C@H](O[C@@H]6O[C@H](C(=O)O)[C@@H](O)[C@H](O[C@@H]7O[C@@H](CO)[C@H](O)[C@H]7O)[C@H]6O[C@@H]6O[C@H](CO)[C@@H](O)[C@H](O)[C@H]6O)[C@](C)(CO)[C@@H]5CC[C@]43C)[C@@H]2CC1(C)C [AESCULIOSIDE IIH] | Not Active | inactive | inactive | inactive | inactive | – | –
CC1(C)C[C@H]2C3=CC[C@@H]4[C@@]5(C)CC[C@H](O)C(C)(C)[C@@H]5CC[C@@]4(C)[C@]3(C)C[C@@H](O)[C@@]2(CO)[C@@H](O)[C@@H]1O [BARRINGTOGENOL C] | Not Active | inactive | inactive | inactive | inactive | – | –
CC1(C)CC[C@]2(C(=O)O[C@@H]3O[C@H](CO)[C@@H](O)[C@H](O)[C@H]3O)CC[C@]3(C)C(=CC[C@@H]4[C@@]5(C)CC[C@H](O[C@@H]6O[C@H](C(=O)O)[C@@H](O)[C@H](O)[C@H]6O)C(C)(C)[C@@H]5CC[C@]43C)[C@@H]2C1 [CHIKUSETSUSAPONIN IVA] | Not Active | inactive | inactive | inactive | inactive | – | –
C[C@@H]1[C@@H](O)[C@H](O)[C@@H](O[C@H]2CC(C)(C)C[C@H]3C4=CC[C@@H]5[C@@]6(C)CC[C@H](O[C@@H]7O[C@H](CO)[C@@H](O)[C@H](O)[C@H]7O[C@@H]7O[C@H](CO)[C@@H](O)[C@H](O)[C@H]7O[C@@H]7O[C@H](CO)[C@@H](O)[C@H](O)[C@H]7O)C(C)(C)[C@@H]6CC[C@@]5(C)[C@]4(C)C[C@@H](O)[C@@]23CO)O[C@H]1CO [ERYNGIOSIDE A] | Not Active | inactive | inactive | inactive | inactive | – | –
C[C@@H]1[C@@H](O)[C@H](O)[C@@H](O[C@H]2CC(C)(C)C[C@H]3C4=CC[C@@H]5[C@@]6(C)CC[C@H](O[C@@H]7O[C@H](CO)[C@@H](O)[C@H](O)[C@H]7O[C@@H]7O[C@H](CO)[C@@H](O)[C@H](O)[C@H]7O[C@@H]7O[C@H](CO)[C@H](O)[C@H](O)[C@H]7O)C(C)(C)[C@@H]6CC[C@@]5(C)[C@]4(C)C[C@@H](O)[C@@]23CO)O[C@H]1CO [ERYNGIOSIDE B] | Not Active | inactive | inactive | inactive | inactive | – | –
C[C@@H]1[C@@H](O)[C@H](O)[C@@H](O[C@H]2CC(C)(C)C[C@H]3C4=CC[C@@H]5[C@@]6(C)CC[C@H](O[C@@H]7O[C@H](CO)[C@@H](O)[C@H](O)[C@H]7O[C@@H]7O[C@H](CO)[C@@H](O)[C@H](O)[C@H]7O[C@@H]7O[C@H](CO)[C@@H](O)[C@H](O)[C@H]7O)C(C)(C)[C@@H]6CC[C@@]5(C)[C@]4(C)CC(=O)[C@@]23CO)O[C@H]1CO [ERYNGIOSIDE C] | Not Active | inactive | inactive | inactive | inactive | – | –
CC(C)=CCC[C@](C)(O[C@@H]1O[C@H](CO[C@@H]2O[C@H](CO)[C@@H](O)[C@H](O)[C@H]2O)[C@@H](O)[C@H](O)[C@H]1O)[C@H]1CC[C@]2(C)[C@@H]1[C@H](O)C[C@@H]1[C@@]3(C)CC[C@H](O[C@@H]4O[C@H](CO)[C@@H](O)[C@H](O)[C@H]4O)C(C)(C)[C@@H]3CC[C@]12C [GYPENOSIDE XVII] | – | inactive | inactive | inactive | inactive | > 250 | > 250
